Experimental data from US20110053773A1, “METHODS OF IMPROVING NUTRITIONAL VALUE OF PLANTS” (UNIVERSITY OF TENNESSEE RESEARCH FOUNDATION, priority 2009, published 2011).

Experiments:
Format in all cases: in vivo
[1] = system: sweet corn variety WH0809; assay: Sugar content of sweet corn kernels (Example 2); conditions: for Sugar content Raffanose: treated check 0.51; for Sugar content Maltose: treated check 0.61; for Sugar content Fructose: treated check 1.04; for Sugar content Glucose: treated check 1.91; for Sugar content Sucrose: treated check 10.72
Procedure: (§1) A field study was conducted at Greenback, TN to investigate POST applications of several herbicide inhibitors of photosynthesis for sweet corn safety and for changes in carbohydrate content in the kernels of sweet corn among treatments. Treatments included bentazon at 1120 and 2240 g ai/ha, linuron at 280 and 560 g ai/ha, metribuzin at 105 and 210 g ai/ha, and bromoxynil at 560 and 1120 g ai/ha. All treatments included a PRE application of a common residual corn herbicide in order to maintain weed free conditions. […] Sweet corn was harvested from the center two rows of each four row plot and weighed in the husk. Eight ears of corn were harvested from each plot and were pooled over replicates for analysis of key carbohydrates which included the sugars sucrose, fructose, glucose, maltose, and raffanose.

[2] = system: sweet corn variety WH0809; assay: Visual injury of sweet corn after POST herbicide inhibitors of photosynthesis (Example 2)
Procedure: as §1

[3] = system: sweet corn variety WH0809; assay: Sweet corn yield, harvested and weighed in the husk (Example 2); conditions: treated check 9758.4
Procedure: as §1

CSc1nnc(C(C)(C)C)c(=O)n1N [METRIBUZIN, metribuzin]
Sugar content Raffanose ([1]; 105 g ai/ha + COC 1% v/v POST): 0.36 mg/g dw
Sugar content Maltose ([1]; 105 g ai/ha + COC 1% v/v POST): 0.49 mg/g dw
Sugar content Fructose ([1]; 105 g ai/ha + COC 1% v/v POST): 1.04 mg/g dw
Sugar content Glucose ([1]; 105 g ai/ha + COC 1% v/v POST): 1.79 mg/g dw
Sugar content Sucrose ([1]; 105 g ai/ha + COC 1% v/v POST): 9.35 mg/g dw
fructose increase compared to the untreated check ([1]; 210 g ai/ha): 115%
glucose increase compared to the untreated check ([1]; 210 g ai/ha): 106%
maltose increase compared to the untreated check ([1]; 210 g ai/ha): 74%
raffanose increase compared to the untreated check ([1]; 210 g ai/ha): 59%
sucrose increase compared to the untreated check ([1]; 210 g ai/ha): 103%
Sugar content Raffanose ([1]; 210 g ai/ha + COC 1% v/v POST): 0.81 mg/g dw
Sugar content Maltose ([1]; 210 g ai/ha + COC 1% v/v POST): 1.06 mg/g dw
Sugar content Fructose ([1]; 210 g ai/ha + COC 1% v/v POST): 2.24 mg/g dw
Sugar content Glucose ([1]; 210 g ai/ha + COC 1% v/v POST): 3.93 mg/g dw
Sugar content Sucrose ([1]; 210 g ai/ha + COC 1% v/v POST): 21.79 mg/g dw
Injury ([2]; 105 g ai/ha + COC 1% v/v POST, 1st of 3 Injury columns, rating date not given): 12%
Injury ([2]; 105 g ai/ha + COC 1% v/v POST, 2nd of 3 Injury columns (agrees with 14 DAT of b67)): 13%
Injury ([2]; 105 g ai/ha + COC 1% v/v POST, 3rd of 3 Injury columns, rating date not given): 5%
Injury ([2]; 210 g ai/ha + COC 1% v/v POST, 1st of 3 Injury columns, rating date not given): 17%
Injury ([2]; 210 g ai/ha + COC 1% v/v POST, 2nd of 3 Injury columns (agrees with 14 DAT of b67)): 30%
Injury ([2]; 210 g ai/ha + COC 1% v/v POST, 3rd of 3 Injury columns, rating date not given): 22%
YIELD ([3]; 105 g ai/ha + COC 1% v/v POST): 10715.4 kg
YIELD ([3]; 210 g ai/ha + COC 1% v/v POST): 8967.5 kg
